pIC50: −log10 of the molar value.
Key:
leukemia NB4 cells = assay: Cell death induction in NB4 cells (FACS, pre-G1); assay type: cell-based, human; details: for % Cell death NB4 cells: 3 μM, 30 h; for effect on cell death, single inhibitor: C646 5 µM, GSK126 10 µM, used separately
[1] = test system: neuroblastoma SHSY5Y cells; assay: Cell death induction in SHSY5Y cells; assay type: cell-based; details: 3 μM, 48 h
Description: When tested in neuroblastoma SHSY5Y cells at tetrahydro-4H -pyran-4-one MC2912 failed in inducing
3 μM for 48 h, MC2884 and its analogues furnished cell death in SHSY5Y cells, whereas its thio-analogue
(Supplementary SAR Table 1). In general, the SHSY5Y similarly to what observed in NB4 cells.
than NB4 cells. Anyway, also in this cell line the death in both cell lines such as MC2910, 2912, 2909,
(MC2909), and bis 3,5-dibromophenyl (MC2910) were acetylation and EZH2 deregulation (SAR Figure 2). In […]
3-phenyl-1-propan-1-one chain at N1 (MC3187), which 3).

KAT5 = KAT5 (Homo sapiens, UniProt Q92993); assay: HAT in vitro assay, 10-dose IC50, KAT5; assay type: biochemical; details: substrate Histone H2A, 3 μM Acetyl-CoA; read-out: Compound IC50 KAT5
Chain of KAT5 (Q92993 whole entry): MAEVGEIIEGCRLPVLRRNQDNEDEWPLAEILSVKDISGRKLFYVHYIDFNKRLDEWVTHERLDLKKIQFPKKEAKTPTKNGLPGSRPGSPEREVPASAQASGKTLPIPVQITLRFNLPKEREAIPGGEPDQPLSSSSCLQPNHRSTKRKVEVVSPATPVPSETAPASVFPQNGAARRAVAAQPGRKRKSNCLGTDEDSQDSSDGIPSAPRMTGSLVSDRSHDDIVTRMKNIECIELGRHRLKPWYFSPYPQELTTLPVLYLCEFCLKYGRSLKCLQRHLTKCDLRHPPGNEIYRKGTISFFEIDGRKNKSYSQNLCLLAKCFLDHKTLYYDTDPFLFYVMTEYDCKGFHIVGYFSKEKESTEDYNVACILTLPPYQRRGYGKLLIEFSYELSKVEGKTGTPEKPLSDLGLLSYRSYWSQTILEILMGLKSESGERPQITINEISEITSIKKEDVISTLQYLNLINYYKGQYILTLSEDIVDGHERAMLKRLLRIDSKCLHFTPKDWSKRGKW
Description: (§1) For HAT in vitro assay, MC2884 activity was also tested in vitro and IC50 was calculated as indicated in the scheme. […] Reactions were carried out at 3 μM Acetyl-CoA. Empty cells indicate no inhibition or compound activity that could not be fit to an IC50 curve.

CBP = CBP (Homo sapiens, UniProt Q92793); assay: HAT in vitro assay, 10-dose IC50, CBP; assay type: biochemical; details: substrate Histone H3, 3 μM Acetyl-CoA; read-out: Compound IC50 CBP
Chain of CBP (Q92793 whole entry): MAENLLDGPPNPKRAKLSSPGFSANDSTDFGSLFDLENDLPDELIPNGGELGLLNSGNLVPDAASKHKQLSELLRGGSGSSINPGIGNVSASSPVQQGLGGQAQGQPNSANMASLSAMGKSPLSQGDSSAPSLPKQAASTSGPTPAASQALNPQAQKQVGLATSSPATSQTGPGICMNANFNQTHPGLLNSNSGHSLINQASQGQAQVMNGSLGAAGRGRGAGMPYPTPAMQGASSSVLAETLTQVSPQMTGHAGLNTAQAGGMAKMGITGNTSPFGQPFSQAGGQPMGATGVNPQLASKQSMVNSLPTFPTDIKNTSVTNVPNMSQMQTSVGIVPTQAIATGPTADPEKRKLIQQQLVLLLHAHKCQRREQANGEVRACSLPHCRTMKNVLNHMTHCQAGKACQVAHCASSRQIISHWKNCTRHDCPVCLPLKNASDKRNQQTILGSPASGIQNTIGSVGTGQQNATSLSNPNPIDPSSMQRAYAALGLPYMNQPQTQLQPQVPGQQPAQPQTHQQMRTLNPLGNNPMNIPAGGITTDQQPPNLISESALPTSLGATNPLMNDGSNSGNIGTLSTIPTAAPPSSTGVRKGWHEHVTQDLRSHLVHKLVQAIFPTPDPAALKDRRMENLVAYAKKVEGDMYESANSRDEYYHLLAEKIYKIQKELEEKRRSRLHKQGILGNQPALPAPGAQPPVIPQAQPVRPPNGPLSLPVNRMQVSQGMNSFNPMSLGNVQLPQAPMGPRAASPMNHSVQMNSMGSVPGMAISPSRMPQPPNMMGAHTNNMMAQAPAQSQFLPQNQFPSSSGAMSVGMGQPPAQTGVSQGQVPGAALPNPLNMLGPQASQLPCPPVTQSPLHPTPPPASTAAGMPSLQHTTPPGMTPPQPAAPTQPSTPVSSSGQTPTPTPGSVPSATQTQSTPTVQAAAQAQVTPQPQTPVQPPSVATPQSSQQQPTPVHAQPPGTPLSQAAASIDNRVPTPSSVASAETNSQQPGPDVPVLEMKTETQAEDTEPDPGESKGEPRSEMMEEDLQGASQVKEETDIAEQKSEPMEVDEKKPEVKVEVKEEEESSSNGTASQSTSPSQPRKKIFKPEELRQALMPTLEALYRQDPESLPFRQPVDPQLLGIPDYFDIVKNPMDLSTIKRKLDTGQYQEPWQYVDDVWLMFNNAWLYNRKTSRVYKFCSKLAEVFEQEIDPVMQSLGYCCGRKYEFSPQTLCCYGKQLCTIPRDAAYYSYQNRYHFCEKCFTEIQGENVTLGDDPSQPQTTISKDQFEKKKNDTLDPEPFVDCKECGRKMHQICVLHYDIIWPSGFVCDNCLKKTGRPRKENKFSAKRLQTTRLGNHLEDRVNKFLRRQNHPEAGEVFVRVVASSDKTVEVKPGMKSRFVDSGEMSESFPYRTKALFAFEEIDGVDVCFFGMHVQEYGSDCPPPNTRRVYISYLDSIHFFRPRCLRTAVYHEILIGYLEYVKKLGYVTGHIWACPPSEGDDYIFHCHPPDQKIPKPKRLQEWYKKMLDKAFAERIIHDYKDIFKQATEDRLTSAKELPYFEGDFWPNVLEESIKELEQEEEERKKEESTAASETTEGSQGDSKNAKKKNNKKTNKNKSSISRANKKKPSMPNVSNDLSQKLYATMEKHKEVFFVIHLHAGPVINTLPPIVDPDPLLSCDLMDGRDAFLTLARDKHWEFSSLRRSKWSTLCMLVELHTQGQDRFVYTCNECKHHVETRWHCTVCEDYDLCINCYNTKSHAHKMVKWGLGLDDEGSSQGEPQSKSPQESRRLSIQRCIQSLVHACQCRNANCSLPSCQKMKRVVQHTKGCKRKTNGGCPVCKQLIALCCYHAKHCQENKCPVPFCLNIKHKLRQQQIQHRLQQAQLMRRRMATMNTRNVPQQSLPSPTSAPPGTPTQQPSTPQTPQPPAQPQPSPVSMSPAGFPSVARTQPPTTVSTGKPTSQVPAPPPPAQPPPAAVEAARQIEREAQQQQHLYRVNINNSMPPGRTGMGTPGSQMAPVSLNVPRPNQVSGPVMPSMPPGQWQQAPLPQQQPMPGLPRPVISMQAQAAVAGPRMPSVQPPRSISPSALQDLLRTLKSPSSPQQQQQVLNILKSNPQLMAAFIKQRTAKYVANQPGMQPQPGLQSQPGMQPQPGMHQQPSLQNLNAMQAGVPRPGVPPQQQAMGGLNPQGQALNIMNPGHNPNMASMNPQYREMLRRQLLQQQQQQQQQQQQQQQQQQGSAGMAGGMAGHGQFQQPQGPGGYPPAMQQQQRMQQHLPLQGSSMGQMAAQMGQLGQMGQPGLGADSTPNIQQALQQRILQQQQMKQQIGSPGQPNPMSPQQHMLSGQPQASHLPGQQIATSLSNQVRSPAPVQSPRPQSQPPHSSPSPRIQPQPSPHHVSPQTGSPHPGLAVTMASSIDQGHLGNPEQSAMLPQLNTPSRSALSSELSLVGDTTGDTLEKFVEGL
Description: as §1

pCAF = pCAF (Homo sapiens, UniProt Q92831); assay: HAT in vitro assay, 10-dose IC50, pCAF; assay type: biochemical; details: substrate Histone H3, 3 μM Acetyl-CoA; read-out: Compound IC50 pCAF
Chain of pCAF (Q92831 whole entry): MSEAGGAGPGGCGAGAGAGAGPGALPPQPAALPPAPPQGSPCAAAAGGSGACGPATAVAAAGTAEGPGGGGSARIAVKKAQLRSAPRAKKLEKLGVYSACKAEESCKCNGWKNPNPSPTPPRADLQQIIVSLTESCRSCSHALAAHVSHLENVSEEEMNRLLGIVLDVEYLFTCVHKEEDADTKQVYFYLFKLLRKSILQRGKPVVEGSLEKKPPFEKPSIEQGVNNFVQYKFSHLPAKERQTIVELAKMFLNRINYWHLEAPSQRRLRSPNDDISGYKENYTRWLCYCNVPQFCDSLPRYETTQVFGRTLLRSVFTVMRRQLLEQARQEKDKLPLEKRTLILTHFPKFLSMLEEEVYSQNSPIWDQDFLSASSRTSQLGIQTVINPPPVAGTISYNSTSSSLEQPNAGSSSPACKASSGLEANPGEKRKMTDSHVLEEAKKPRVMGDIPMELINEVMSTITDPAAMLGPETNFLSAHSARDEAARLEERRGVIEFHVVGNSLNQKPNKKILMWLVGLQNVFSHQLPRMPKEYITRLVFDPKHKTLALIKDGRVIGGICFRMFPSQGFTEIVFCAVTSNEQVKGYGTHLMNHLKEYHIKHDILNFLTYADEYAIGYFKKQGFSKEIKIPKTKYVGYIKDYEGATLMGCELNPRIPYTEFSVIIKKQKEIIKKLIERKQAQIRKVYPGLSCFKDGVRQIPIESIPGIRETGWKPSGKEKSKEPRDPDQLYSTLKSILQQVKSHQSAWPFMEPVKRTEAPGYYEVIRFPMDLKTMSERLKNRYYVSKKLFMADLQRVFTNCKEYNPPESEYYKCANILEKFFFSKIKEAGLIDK
Description: as §1

GCN5 = GCN5 (Homo sapiens, UniProt Q92830); assay: HAT in vitro assay, 10-dose IC50, GCN5; assay type: biochemical; details: substrate Histone H3, 3 μM Acetyl-CoA; read-out: Compound IC50 GCN5
Chain of GCN5 (Q92830 whole entry): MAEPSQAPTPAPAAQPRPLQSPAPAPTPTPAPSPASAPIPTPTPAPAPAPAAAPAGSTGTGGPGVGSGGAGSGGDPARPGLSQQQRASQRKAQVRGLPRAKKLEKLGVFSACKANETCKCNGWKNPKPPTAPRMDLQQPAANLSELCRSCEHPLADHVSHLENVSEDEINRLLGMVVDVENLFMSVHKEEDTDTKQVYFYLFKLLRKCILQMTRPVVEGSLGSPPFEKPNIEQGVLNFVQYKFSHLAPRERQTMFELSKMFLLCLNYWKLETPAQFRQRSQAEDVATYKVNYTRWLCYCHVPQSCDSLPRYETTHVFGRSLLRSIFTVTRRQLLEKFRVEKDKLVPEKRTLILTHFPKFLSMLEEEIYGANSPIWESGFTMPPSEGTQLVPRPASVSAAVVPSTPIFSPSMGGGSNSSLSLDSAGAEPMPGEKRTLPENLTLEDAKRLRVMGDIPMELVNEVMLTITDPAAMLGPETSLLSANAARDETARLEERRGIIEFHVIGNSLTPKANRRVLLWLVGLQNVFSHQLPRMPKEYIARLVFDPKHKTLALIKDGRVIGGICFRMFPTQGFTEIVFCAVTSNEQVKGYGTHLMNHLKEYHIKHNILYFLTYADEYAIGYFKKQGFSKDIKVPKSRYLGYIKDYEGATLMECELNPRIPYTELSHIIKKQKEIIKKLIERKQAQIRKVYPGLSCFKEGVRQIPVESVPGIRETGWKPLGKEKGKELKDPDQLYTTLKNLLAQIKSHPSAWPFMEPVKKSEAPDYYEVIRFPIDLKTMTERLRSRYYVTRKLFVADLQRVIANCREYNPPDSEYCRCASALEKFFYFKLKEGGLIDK
Description: as §1

Row | Structure (SMILES) | % Cell death SHSY5Y cells [1] | % Cell death NB4 cells (leukemia NB4 cells) | further results
1 | CN(C)CC[C@H](CSc1ccccc1)Nc1ccc(S(=O)(=O)NC(=O)c2ccc(N3CCN(Cc4ccccc4-c4ccc(Cl)cc4)CC3)cc2)cc1[N+](=O)[O-] [ABT-737, reference compound] | – | – | cell death, ABT-737 with addition of MC2884 (leukemia NB4 cells; NB4 cells, ABT-737 1 µM plus MC2884 at concentrations that alone induced little apoptosis): up to 60%
2 | O=C1C(=Cc2cccc(Br)c2)CSCC1=Cc1cccc(Br)c1 [MC2913] | 23.9% | 52.7% | –
3 | CC1=NN(c2ccc(C(=O)O)cc2)C(=O)/C1=C\c1ccc(-c2cc(C)c(C)cc2[N+](=O)[O-])o1 [C646, reference compound] | – | – | pIC50 (KAT5): 4.69; pIC50 (CBP): 7.10; effect on cell death, single inhibitor (leukemia NB4 cells; NB4 cells): no effects
4 | CCCCCCCCCCCCCCCc1cccc(O)c1C(=O)O [Anacardic Acid] | – | – | pIC50 (pCAF): 4.41; pIC50 (GCN5): 4.41
5 | O=C1C(=Cc2ccc(Br)cc2)CN(Cc2ccccc2)CC1=Cc1ccc(Br)cc1 [MC2909] | 4.7% | 8.8% | –
6 | O=C1C(=Cc2cccc(Br)c2)CN(C(=O)CCc2ccccc2)CC1=Cc1cccc(Br)c1 [MC3187] | 19.9% | 28.9% | –
7 | O=C1/C(=C/c2cccc(Br)c2)CCC/C1=C\c1cccc(Br)c1 [MC2911] | 0,8% | 0,76% | –
8 | O=C1/C(=C/c2ccc(O)cc2Br)CN(Cc2ccccc2)C/C1=C\c1ccc(O)cc1Br [MC3395] | 1,0% | 0,53% | –
9 | O=C1C(=Cc2cccc(Br)c2)CN(CCc2ccccc2)CC1=Cc1cccc(Br)c1 [MC3269] | 19.2% | 62.5% | –
10 | O=C1C(=Cc2ccccc2Br)CN(Cc2ccccc2)CC1=Cc1ccccc1Br [MC2908] | 9.2% | 30.3% | –
11 | O=C1C(=Cc2cccc(Br)c2)CN(CC(=O)c2ccccc2)CC1=Cc1cccc(Br)c1 [MC3207] | 7.0% | 38% | –
12 | O=C1C(=Cc2cccc(Br)c2)CN(C(=O)c2ccccc2)CC1=Cc1cccc(Br)c1 [MC3146] | 5.6% | 13.2% | –
13 | CC[C@H](C)n1cc(C)c2c(C(=O)NCc3c(C)cc(C)[nH]c3=O)cc(-c3ccc(N4CCNCC4)nc3)cc21 [GSK126, reference compound] | – | – | effect on cell death, single inhibitor (leukemia NB4 cells; NB4 cells): no effects
14 | O=C(/C=C/c1ccc(Br)cc1)/C=C/c1ccc(Br)cc1 [MC2886] | 1,2% | 0,56% | –
15 | CN1CC(=Cc2cccc(Br)c2)C(=O)C(=Cc2cccc(Br)c2)C1 [MC2914] | 9.0% | 36% | –

Source: publication PMC5986654, “Combined HAT/EZH2 modulation leads to cancer-selective cell death” (Oncotarget, 2018)
